According to patent US20250098692A1, “GERMINATION/SPROUTING AND FRUIT RIPENING REGULATORS” (The United States of America, as Represented by the …, priority 2021, published 2025):

What was measured:
strawberry fruit [1] = assay: PAD analogs: ability to delay strawberry fruit ripening; type: in vivo; settings: for effect on strawberry fruit ripening: 50 μM in 0.1% TRITON-X 100
Procedure: Chemicals with similarity to PAD were tested for their ability to delay fruit ripening.
To the inventors' knowledge, no chemical closely-related to PAD is currently commercially available. A few analogs with 88-99% similarity to PAD were found in the ChemBridge database used in Example 1.

strawberry fruit [2] = assay: Strawberry fruit ripening after dipping fruits on the plant; type: in vivo, Fragaria x ananassa CV. Albion; settings: for strawberry appearance (FIG. 2B): 8 DAT; for strawberry appearance (FIG. 2B) / strawberry appearance (FIG. 2C) / strawberry appearance (FIG. 2D) / strawberry appearance (FIG. 2E) / strawberry appearance (FIG. 2F) / fruit started to turn red: 10 μM PAD or 1 mM ABA; for strawberry appearance (FIG. 2C): 9 DAT; for strawberry appearance (FIG. 2D): 10 DAT; for strawberry appearance (FIG. 2E): 11 DAT; for strawberry appearance (FIG. 2F): 12 DAT; for effect on strawberry fruit ripening compared to mock-treated fruit: dipped 20 seconds eight days after pollination, 10 μM PAD or 1 mM ABA in 0.1% TRITON X-100
Procedure: Strawberry plants (Fragaria x ananassa CV. Albion) were grown in a greenhouse at 28° C. and 14-hour light/10-hour dark conditions. Eight days after pollination, fruits were dipped for 20 seconds in 10 µM PAD in 0.1% TRITON X-100 surfactant; 1 mM ABA in 0.1% TRITON X-100 surfactant; or buffer alone (0.1% Triton X-100). Fruits were allowed to continue growing on the plants. FIG. 1 depicts images of strawberry fruit development under standard conditions.
Of the twelve chemicals identified in Example 1 as promoting seed germination, N-[3-chloro-4-(4-propionyl-1-piperazinyl)phenyl]-2-phenylacetamide was named “PAD,” and used for further study. […] Mock-treated fruit started to turn red at 10 DAT, and reached full red at 12 DAT. ABA-treated fruit started to turn red 9 DAT, and reached full red 11 DAT. In contrast, PAD-treated fruit only started turning red 12 DAT.

Cherry tomato fruits = assay: Cherry tomato ripening after injection at mature green stage; type: in vivo; settings: for cherry tomato appearance (FIG. 3B, FIG. 3D): 6 DAT, injected 10 µM PAD or 200 μM ABA (figure legend); for ripening stage of cherry tomato fruits: six days after treatment, injected 50 μM PAD or 200 μM ABA
Procedure: Cherry tomato fruits at mature green stage were purchased from Butler's Orchard (Germantown, Maryland, USA). […] FIG. 3A and FIG. 3B show images of cherry tomatoes injected with 50 µM PAD. FIG. 3C and FIG. 3D show images of cherry tomatoes injected with 200 μM ABA. FIG. 3E and FIG. 3F show images of cherry tomatoes injected with buffer alone. FIG. 3G and FIG. 3H show images of untreated tomatoes. FIG. 3A; FIG. 3C; FIG. 3E; and FIG. 3G show images taken the day of treatment. FIG. 3B; FIG. 3D; […]; and FIG. 3H show images taken 6 DAT.

strawberry fruit [3] = assay: Strawberry fruit ripening after injection of fruits; type: in vivo, Fragaria x ananassa CV. Albion; settings: for strawberry appearance (FIG. 4A): 8 DAT; for strawberry appearance (FIG. 4A) / strawberry appearance (FIG. 4B) / strawberry appearance (FIG. 4C) / strawberry appearance (FIG. 4D) / strawberry appearance (FIG. 4E) / fruit started to turn red: 10 µM PAD or 200 μM ABA; for strawberry appearance (FIG. 4B): 9 DAT; for strawberry appearance (FIG. 4C): 10 DAT; for strawberry appearance (FIG. 4D): 11 DAT; for strawberry appearance (FIG. 4E): 12 DAT
Procedure: Strawberry plants (Fragaria x ananassa CV. Albion) were grown and maintained as disclosed above. Fourteen days after pollination fruits were injected with 10 µM PAD in 0.1% TRITON X-100 surfactant; 200 μM ABA in 0.1% TRITON X-100 surfactant; or buffer alone (0.1% Triton X-100 surfactant).
FIG. 4A to FIG. 4F depict images of strawberries treated with either 10 µM PAD in 0.1% TRITON X-100 surfactant; 200 μM ABA in 0.1% TRITON X-100 surfactant; buffer alone ([…] surfactant; mock-treated); or not injected (control). […] Control fruit started to turn red 11 DAT, and reached full red at 12 DAT. Mock-treated fruit started to turn red at 10 DAT, and reached full red at 12 DAT. ABA-treated fruit started to turn red 9 DAT, and reached full red 11 DAT. In contrast, PAD-treated fruit only started turning red 12 DAT.

[4] = system: Strawberry seeds (Fragaria x ananassa CV. Albion); assay: Chemical library screening for promotion of strawberry seed germination; type: in vivo; settings: about 5 μM chemical in 0.1% TRITON X-100, 96 well plates, 25 C
From the text: Chemical libraries of small compounds were screened for compounds capable of promoting seed germination, delaying the fruit ripening process, and/or retarding fruit pigmentation. A chemical library containing 10,000 small compounds (˜300 Dalton) was purchased from ChemBridge Co (San Diego, California, USA). Strawberry seeds (Fragaria x ananassa CV. Albion) were purchased from Johnny's Seeds (Fairfield, Maine, USA). Five to six seeds were sterilized with 70% ethanol and added to each well of 96 well ELISA plates containing about 5 μM chemical in 0.1% TRITON X-100 surfactant (polyethylene glycol tert-octylphenyl ether). One mM abscisic acid (ABA), a hormone that inhibits seed germination, and gibberellic acid (GA3), a hormone that promotes seed germination, were used as controls. Each experiment was conducted in triplicate. Plates were kept in a growth chamber at 25 C under dark, and a 14 hour light/10 hour dark cycle was added after seed germination was observed.

strawberry fruit [5] = assay: Strawberry fruit ripening after dipping fruits on the plant; type: in vivo, Fragaria x ananassa CV. Albion; settings: 10 μM PAD applied on day 9 after pollination

| Compound | effect on strawberry fruit ripening (strawberry fruit [1]) | strawberry appearance (FIG. 2B) (strawberry fruit [2]; dipped) | strawberry appearance (FIG. 2C) (strawberry fruit [2]; dipped) | strawberry appearance (FIG. 2D) (strawberry fruit [2]; dipped) | strawberry appearance (FIG. 2E) (strawberry fruit [2]; dipped) | strawberry appearance (FIG. 2F) (strawberry fruit [2]; dipped) | effect on strawberry fruit ripening compared to mock-treated fruit (strawberry fruit [2]) | fruit started to turn red (strawberry fruit [2]; dipped, days after treatment) [DAT] | cherry tomato appearance (FIG. 3B, FIG. 3D) (Cherry tomato fruits) | ripening stage of cherry tomato fruits (Cherry tomato fruits) | strawberry appearance (FIG. 4A) (strawberry fruit [3]; injected) | strawberry appearance (FIG. 4B) (strawberry fruit [3]; injected) | strawberry appearance (FIG. 4C) (strawberry fruit [3]; injected) | strawberry appearance (FIG. 4D) (strawberry fruit [3]; injected) | strawberry appearance (FIG. 4E) (strawberry fruit [3]; injected) | fruit started to turn red (strawberry fruit [3]; injected, days after treatment) [DAT] | further results |
| --- | --- | --- | --- | --- | --- | --- | --- | --- | --- | --- | --- | --- | --- | --- | --- | --- | --- |
| CC(C)C(=O)N1CCN(c2ccc(NC(=O)Cc3ccc(Cl)cc3)cc2)CC1 [2-(4-chlorophenyl)-N-[4-(4-isobutyryl-1-piperazinyl)phenyl]acetamide] | no obvious effect |  |  |  |  |  |  |  |  |  |  |  |  |  |  |  |  |
| CC1=CC(=O)CC(C)(C)[C@@]1(O)/C=C/C(C)=C\C(=O)O [ABA, abscisic acid, reference compound] |  | white | with pink spots | mostly red | red | red | stimulated strawberry fruit ripening | 9 | red | fully ripen (red stage) | with pink spots | mostly red | mostly red | mostly red | red | 9 | fruit reached full red (strawberry fruit [2]; dipped, 1 mM ABA, days after treatment): 11 DAT; fruit reached full red (strawberry fruit [3]; injected, 200 μM ABA, days after treatment): 11 DAT |
| CC(C)C(=O)N1CCN(c2ccc(NC(=O)C(c3ccccc3)c3ccccc3)cc2Cl)CC1 [N-(3-chloro-4-(4-isobutyryl-1-piperazinyl)phenyl]-2,2-diphenylacetamide] | no obvious effect |  |  |  |  |  |  |  |  |  |  |  |  |  |  |  |  |
| CC(C)(C)C(=O)N1CCN(c2ccc(NC(=O)Cc3ccccc3)cc2Cl)CC1 [N-(3-chloro-4-[4-(2,2-dimethylpropanoyl)-1-piperazinyl]phenyl)-2-phenylacetamide] | delayed strawberry fruit ripening |  |  |  |  |  |  |  |  |  |  |  |  |  |  |  | effectiveness in delaying strawberry fruit ripening relative to PAD (strawberry fruit [1]; 50 μM in 0.1% TRITON-X 100, same timing as PAD): much less effectively than PAD |
| CCC(=O)N1CCN(c2ccc(NC(=O)Cc3ccccc3)cc2Cl)CC1 [PAD, N-[3-chloro-4-(4-propionyl-1-piperazinyl)phenyl]-2-phenylacetamide] |  | white with a greenish tint | whit with a greenish tint | white with a greenish tint | white | red with some yellow | delayed fruit ripening | 12 | with a yellow and/or yellow/red tint | still at a green stage | with pink spots | orange | mostly red | mostly red | red | 12 | promoting seed germination [4]: promoted seed germination; fresh weight of strawberry fruit larger than mock-treated (strawberry fruit [2]; PAD-treated vs mock-treated): about 10%; sugar content versus mock-treated controls (strawberry fruit [2]; PAD-treated vs mock-treated): no difference in the sugar content; effect on cherry tomato ripening compared to mock-treated or untreated (Cherry tomato fruits; injected 50 μM PAD): delay in cherry tomato ripening; delay in cherry tomato fruit ripening (Cherry tomato fruits; mature green stage, 50 μM PAD): about a seven-day delay; effect on strawberry fruit ripening compared to not-treated, mock-treated and ABA treated fruit (strawberry fruit [3]; injected fourteen days after pollination, 10 µM PAD): delayed fruit ripening; delay of strawberry fruit ripening compared with mock-treated (strawberry fruit [5]): about 2 days |
